Assay results as given in PubChem BioAssay AID1902 (Broad Institute, 2009).
Active and inactive are the calls of the source.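 Rule for the calls: active = EC50 no more than a set limit of log units above the highest dose; inactive = the rest.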

biological target: S. pyogenes SKKanGAS, kanamycin survival, BacTiterGlo, 6 h; assay: SKKanGAS survival reduction under kanamycin, dose response, streptokinase promoter inhibitor project, SKKanGAS strain, luminescence, dose confirmation (AID 1902);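 note: lower survival reflects blocked streptokinase promoter driving kanamycin resistance gene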

Row | SMILES | EC50
1 | Cc1cc(/C=C2\SC(=S)NC2=O)c(C)n1-c1cccc(O)c1 | 3.06 µM
2 | COc1ccc(C2CC(c3cccs3)=NN2C(=O)CSc2nc3c(cnn3-c3ccccc3)c(=O)[nH]2)cc1 (configuration not stated) | 2.11 µM
3 | CC(C)N1CCc2c(sc(NC(=O)c3ccc([N+](=O)[O-])o3)c2C(N)=O)C1 | 3.5 µM
4 | Cn1nc(-c2ccccc2)c(CSc2cccc(Cl)c2)c1Cl | 1.08 µM
5 | Cc1csc(NC(=O)COCC(=O)O)c1-c1nc2ccccc2s1 | 6.45 µM
6 | COc1cc(N=c2c([N+](=O)[O-])nn(-c3ccc4c(c3)OCCO4)n2O)cc(OC)c1 | 5.24 µM
7 | Cc1cccc(Cn2nc(C(C)(C)C)cc2C(=O)Nc2ccc(F)cc2)c1 | 3.95 µM
8 | O=C(N/N=C/c1c(O)n(Cc2ccccc2)c(=O)[nH]c1=O)c1ccccc1 | 8.62 µM
9 | Cc1ccc2c(=O)[nH]c(Nc3nc(C)cc(-c4ccccc4)n3)nc2c1 | 3.37 µM
10 | CCCn1c(NC(=O)c2ccccc2)nc2ccccc21 | 1.57 µM
11 | Cc1cccc(C(=O)CC(=O)c2cc(Cl)ccc2O)c1 | 1.06 µM
12 | CC(C)=CCc1c(O)cc2oc3c(CC=C(C)C)c(O)c(O)c(CC=C(C)C)c3c(=O)c2c1O | 0.828 µM
13 | C=C1CCC2C(C)(C)[C@@H](O)CC[C@@]2(C)[C@@H]1COc1ccc2ccc(=O)oc2c1 (some centres not stated) | 11.6 µM
14 | CCn1c(COc2ccc(C)cc2)nnc1SCc1ccc(C#N)cc1 | > 15 µM (inactive)
15 | O=C(NNC(=S)NC(=O)c1cccnc1)c1ccc(Cl)cc1 | 2.64 µM
16 | CCOc1ccc(NC(=O)c2ccc3c(=O)n(-c4ccc(OC)cc4OC)c(=S)[nH]c3c2)cc1 | 7.86 µM
17 | COCCCn1c(=O)/c(=C\c2ccccc2OC(C)C)s/c1=C(/C#N)C(=O)Nc1ccc(C(=O)O)cc1 | 2.02 µM
18 | CC(C)=CCc1cc([C@@H]2COc3c(ccc4c3C=CC(C)(C)O4)C2)c(O)cc1O | 2.94 µM
19 | COc1ccc(CN2C(=O)c3ccccc3C(/C=N\OCc3ccc(C)cc3)C2=O)cc1 (configuration not stated) | 1.29 µM
20 | CCN1C(=O)C(CC(=O)Nc2ccc(Br)cc2)N(CCCc2ccccc2)C1=S (configuration not stated) | 2.9 µM
21 | CC[C@H]1OC(=O)[C@H](C)[C@@H](O[C@H]2C[C@@](C)(OC)[C@@H](O)[C@H](C)O2)[C@H](C)[C@@H](O[C@@H]2O[C@H](C)C[C@H](N(C)C)[C@H]2O)[C@](C)(O)C[C@@H](C)[C@@H]2N[C@@H](COCCOC)O[C@H]([C@H]2C)[C@]1(C)O | < 0.06 µM
22 | COc1ccc(/C=N/Nc2cc(C)nc(-n3nc(C)cc3C)n2)c(OC)c1 | 7.93 µM
23 | Clc1ccc(-c2n[nH]c3c2CCC3)cc1Cl | 12.6 µM
24 | CCOc1ccc(N=Nc2ccc(O)c3ncccc23)cc1 | 0.186 µM
25 | O=C(CSC(=S)N1CCOCC1)c1cc(Br)cc(Br)c1O | > 15 µM (inactive)
26 | COc1ccc(-c2c/c(=N\c3nc(-c4ccccc4)c(C)s3)c3ccccc3o2)cc1O | 11 µM

Row | SMILES | EC50
27 | Cc1onc(-c2ccccc2)c1C(=O)NNC(=S)NC(=O)c1ccc(Cl)cc1Cl | 0.615 µM
28 | Cc1ccc(C)c(-c2csc(N)c2C(=O)OC(C)C)c1 | 3.11 µM
29 | COc1ccc(N2CCN(C(=S)NC(=O)c3cccs3)CC2)c([N+](=O)[O-])c1 | 6.21 µM
30 | CCOC(=O)c1c2c(n(C)c1COC)C(=O)C(=O)c1ccc(Br)cc1-2 | 3.66 µM
31 | CC(=O)NNC(=S)NC(=O)C(c1ccccc1)c1ccccc1 | 0.853 µM
32 | COc1cc([N+](=O)[O-])cc(/C=N/NC(=O)c2cncc(Br)c2)c1O | 0.97 µM
33 | Cc1cc(Cl)c2oc(C(=O)N3CCN(C(=O)c4ccco4)CC3)c(C)c2c1 | 4.45 µM
34 | Cc1ccc(SCc2cc(=O)[nH]c(SCC(=O)Nc3cc(Cl)ccc3Cl)n2)cc1 | 6.79 µM
35 | O=C1C2C(c3ccccc3)=NN(c3ccccc3)C2C(=O)N1c1ccccc1 (configuration not stated) | 0.704 µM
36 | CN(Cc1ccc(N(C)C)cc1)C(=O)c1cc2ccccc2o1 | > 15 µM (inactive)
37 | Cc1cccc2nc(COc3ccc4ccccc4c3Br)cn12 | 4.94 µM
38 | O=C(O)c1ccc(N/N=C/c2ccc(-c3cc(Cl)ccc3Cl)o2)cc1 | 2.48 µM
39 | COc1ccccc1OCC(=O)NNC(=S)NC(=O)c1ccco1 | 2.39 µM
40 | CCC(Oc1ccccc1)C(=O)Nc1ccccc1N1CCCCC1 (configuration not stated) | 3.3 µM
41 | Cc1ccc(Cl)cc1N1CCN(C(=O)c2cccc3c(=O)c(C)c(-c4ccccc4)oc23)CC1 | 4 µM
42 | O=[N+]([O-])c1ccc(O)c(/C=N/Nc2ccc(Cl)nn2)c1 | 0.252 µM
43 | Oc1ccccc1N=Nc1nc(-c2ccccc2)c(-c2ccccc2)[nH]1 | 0.303 µM
44 | CCN(c1ccccc1)S(=O)(=O)c1ccc(C(=O)Nc2nnc(-c3ccco3)o2)cc1 | 2.04 µM
45 | O=C(CN(c1ccc(Cl)c(C(F)(F)F)c1)S(=O)(=O)c1ccccc1)N/N=C/c1cccc2c1OCCO2 | 13.4 µM
46 | Cc1sc2ncnc(N3CCC(C(=O)Nc4ccc(Cl)cc4Cl)CC3)c2c1C | 11.2 µM
47 | O=C1N/C(=N\c2ccccn2)SC1Cc1ccc(Cl)cc1 (configuration not stated) | > 15 µM (inactive)
48 | COc1ccc(Br)cc1/C=C/C(=O)NC(=S)Nc1ccc(Cl)c(C(=O)O)c1 | 10.5 µM
49 | Nc1[nH]n2c(=O)cc(-c3ccccc3)nc2c1N=Nc1ccc2c(c1)OCO2 | 2.25 µM
50 | CC1CCc2c(sc3nc(C4CC4)nc(N4CCN(C(=O)c5ccco5)CC4)c23)C1 (configuration not stated) | 3.84 µM
51 | O=C(CC1CC2CCC1C2)Nc1nc(-c2ccccn2)cs1 (configuration not stated) | 2.4 µM
52 | CC(C)c1ccccc1OCC(=O)NC1CCCc2ccccc21 (configuration not stated) | 11.7 µM
